From PubChem BioAssay (NCI)
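48-hour exposure; five concentrations; linearly interpolated endpoints. GI50 marks 50% less growth. At the TGI there is no net growth.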

Columns and labels:
Assay in all cases: inhibition of tumour cell growth, NCI panel, 48 h
MDA-MB-435 = tested on: MDA-MB-435
RXF 393 renal = tested on: RXF 393 renal
786-0 renal = tested on: 786-0 renal
SF-539 CNS = tested on: SF-539 CNS
HCT-15 colon = tested on: HCT-15 colon
BT-549 breast = tested on: BT-549 breast
SNB-19 CNS = tested on: SNB-19 CNS
NCI-H23 lung = tested on: NCI-H23 lung
PC-3 prostate = tested on: PC-3 prostate
LOX IMVI melanoma = tested on: LOX IMVI melanoma
MCF7 breast = tested on: MCF7 breast
TK-10 renal = tested on: TK-10 renal
OVCAR-8 ovarian = tested on: OVCAR-8 ovarian
RPMI-8226 leukemia = tested on: RPMI-8226 leukemia
COLO 205 colon = tested on: COLO 205 colon
UACC-257 melanoma = tested on: UACC-257 melanoma
HOP-92 NSCLC = tested on: HOP-92 NSCLC
UACC-62 melanoma = tested on: UACC-62 melanoma
EKVX NSCLC = tested on: EKVX NSCLC
CCRF-CEM leukemia = tested on: CCRF-CEM leukemia
SF-268 CNS = tested on: SF-268 CNS
UO-31 renal = tested on: UO-31 renal
NCI-H460 lung = tested on: NCI-H460 lung
M14 melanoma = tested on: M14 melanoma
SK-MEL-5 melanoma = tested on: SK-MEL-5 melanoma
IGROV1 ovarian = tested on: IGROV1 ovarian
HT29 colon = tested on: HT29 colon
CAKI-1 renal = tested on: CAKI-1 renal
SK-MEL-2 melanoma = tested on: SK-MEL-2 melanoma
HCT-116 colon = tested on: HCT-116 colon
HL-60(TB) leukemia = tested on: HL-60(TB) leukemia
MOLT-4 leukemia = tested on: MOLT-4 leukemia
HOP-62 NSCLC = tested on: HOP-62 NSCLC
U251 CNS = tested on: U251 CNS
SK-OV-3 ovarian = tested on: SK-OV-3 ovarian
SR leukemia = tested on: SR leukemia
NCI-H226 lung = tested on: NCI-H226 lung
SW-620 colon = tested on: SW-620 colon
HS 578T breast = tested on: HS 578T breast
OVCAR-4 ovarian = tested on: OVCAR-4 ovarian
HCC-2998 colon = tested on: HCC-2998 colon
ACHN renal = tested on: ACHN renal
DU-145 prostate = tested on: DU-145 prostate
SNB-75 CNS = tested on: SNB-75 CNS
MDA-MB-231 breast = tested on: MDA-MB-231 breast
SK-MEL-28 melanoma = tested on: SK-MEL-28 melanoma
K-562 leukemia = tested on: K-562 leukemia
KM12 colon = tested on: KM12 colon
SF-295 CNS = tested on: SF-295 CNS
NCI/ADR-RES ovarian = tested on: NCI/ADR-RES ovarian
T-47D breast = tested on: T-47D breast
A549 NSCLC = tested on: A549 NSCLC
SN12C renal = tested on: SN12C renal
MALME-3M melanoma = tested on: MALME-3M melanoma
NCI-H522 lung = tested on: NCI-H522 lung
OVCAR-3 ovarian = tested on: OVCAR-3 ovarian
OVCAR-5 ovarian = tested on: OVCAR-5 ovarian

SMILES: COC(=O)[C@H](C)NC(=O)[C@H](NS(=O)(=O)c1nc2ccccc2s1)c1ccccc1
- TGI (MDA-MB-435): > 100 µM
- TGI (RXF 393 renal): 34.8 µM
- TGI (786-0 renal): 80.4 µM
- TGI (SF-539 CNS): 30.4 µM
- TGI (HCT-15 colon): > 100 µM
- TGI (BT-549 breast): > 100 µM
- TGI (SNB-19 CNS): 73.3 µM
- TGI (NCI-H23 lung): > 100 µM
- TGI (PC-3 prostate): > 100 µM
- TGI (LOX IMVI melanoma): 31.9 µM
- TGI (MCF7 breast): > 100 µM
- TGI (TK-10 renal): > 100 µM
- TGI (OVCAR-8 ovarian): 33.7 µM
- TGI (RPMI-8226 leukemia): > 100 µM
- TGI (COLO 205 colon): 25.9 µM
- TGI (UACC-257 melanoma): 26.3 µM
- TGI (HOP-92 NSCLC): 27.4 µM
- TGI (UACC-62 melanoma): 28.3 µM
- TGI (EKVX NSCLC): > 100 µM
- TGI (CCRF-CEM leukemia): > 100 µM
- TGI (SF-268 CNS): 33.5 µM
- TGI (UO-31 renal): 35.8 µM
- TGI (NCI-H460 lung): > 100 µM
- TGI (M14 melanoma): 22.9 µM
- TGI (SK-MEL-5 melanoma): 40.5 µM
- TGI (IGROV1 ovarian): > 100 µM
- TGI (HT29 colon): > 100 µM
- TGI (CAKI-1 renal): 67.2 µM
- TGI (SK-MEL-2 melanoma): 25.2 µM
- TGI (HCT-116 colon): > 100 µM
- TGI (HL-60(TB) leukemia): > 100 µM
- TGI (MOLT-4 leukemia): > 100 µM
- TGI (HOP-62 NSCLC): 74.4 µM
- TGI (U251 CNS): 41 µM
- TGI (SK-OV-3 ovarian): > 100 µM
- TGI (SR leukemia): > 100 µM
- TGI (NCI-H226 lung): 30.6 µM
- TGI (SW-620 colon): > 100 µM
- TGI (HS 578T breast): 36.5 µM
- TGI (OVCAR-4 ovarian): > 100 µM
- TGI (HCC-2998 colon): 44.5 µM
- TGI (ACHN renal): > 100 µM
- TGI (DU-145 prostate): 41 µM
- TGI (SNB-75 CNS): 39.4 µM
- TGI (MDA-MB-231 breast): 64.6 µM
- TGI (SK-MEL-28 melanoma): 31.9 µM
- TGI (K-562 leukemia): > 100 µM
- TGI (KM12 colon): 30.5 µM
- TGI (SF-295 CNS): > 100 µM
- TGI (NCI/ADR-RES ovarian): > 100 µM
- TGI (T-47D breast): 32.4 µM

SMILES: CCOC(=O)c1cn(C)c2c(OC)c3ccccc3c(OC)c2c1=O
- GI50 (MDA-MB-435): 15.9 µM
- TGI (MDA-MB-435): 30 µM
- GI50 (786-0 renal): > 100 µM
- TGI (786-0 renal): > 100 µM
- GI50 (SF-539 CNS): 34 µM
- TGI (SF-539 CNS): > 100 µM
- GI50 (A549 NSCLC): 36.4 µM
- TGI (A549 NSCLC): > 100 µM
- GI50 (SN12C renal): 28.1 µM
- TGI (SN12C renal): 86.9 µM
- GI50 (HCT-15 colon): 29.6 µM
- TGI (HCT-15 colon): > 100 µM
- GI50 (BT-549 breast): 43 µM
- TGI (BT-549 breast): > 100 µM
- GI50 (SNB-19 CNS): 36.6 µM
- TGI (SNB-19 CNS): > 100 µM
- GI50 (NCI-H23 lung): 16.1 µM
- TGI (NCI-H23 lung): 37.8 µM
- GI50 (PC-3 prostate): 29 µM
- TGI (PC-3 prostate): > 100 µM
- GI50 (LOX IMVI melanoma): 20.7 µM
- TGI (LOX IMVI melanoma): 58.6 µM
- GI50 (MCF7 breast): 22.9 µM
- TGI (MCF7 breast): 47.8 µM
- GI50 (TK-10 renal): 30.1 µM
- TGI (TK-10 renal): 62 µM
- GI50 (OVCAR-8 ovarian): 20.2 µM
- TGI (OVCAR-8 ovarian): 63.7 µM
- GI50 (RPMI-8226 leukemia): 23.8 µM
- TGI (RPMI-8226 leukemia): > 100 µM
- GI50 (COLO 205 colon): 63.8 µM
- TGI (COLO 205 colon): > 100 µM
- GI50 (MALME-3M melanoma): 8.95 µM
- TGI (MALME-3M melanoma): 30.3 µM
- GI50 (UACC-257 melanoma): 16.6 µM
- TGI (UACC-257 melanoma): 40.6 µM
- GI50 (UACC-62 melanoma): 19.5 µM
- TGI (UACC-62 melanoma): 36.4 µM
- GI50 (CCRF-CEM leukemia): 34.1 µM
- TGI (CCRF-CEM leukemia): > 100 µM
- GI50 (SF-268 CNS): 20.1 µM
- TGI (SF-268 CNS): 74.9 µM
- GI50 (NCI-H522 lung): > 100 µM
- TGI (NCI-H522 lung): > 100 µM
- GI50 (UO-31 renal): > 100 µM
- TGI (UO-31 renal): > 100 µM
- GI50 (NCI-H460 lung): 32.1 µM
- TGI (NCI-H460 lung): > 100 µM
- GI50 (M14 melanoma): 19.8 µM
- TGI (M14 melanoma): 45 µM
- GI50 (IGROV1 ovarian): 52.6 µM
- TGI (IGROV1 ovarian): > 100 µM
- GI50 (HT29 colon): 64.3 µM
- TGI (HT29 colon): > 100 µM
- GI50 (CAKI-1 renal): 29.7 µM
- TGI (CAKI-1 renal): 76.8 µM
- GI50 (HCT-116 colon): 19.6 µM
- TGI (HCT-116 colon): 38.5 µM
- GI50 (HL-60(TB) leukemia): 35.9 µM
- TGI (HL-60(TB) leukemia): > 100 µM
- GI50 (MOLT-4 leukemia): 18.9 µM
- TGI (MOLT-4 leukemia): 51.7 µM
- GI50 (HOP-62 NSCLC): 33.3 µM
- TGI (HOP-62 NSCLC): 82.7 µM
- GI50 (U251 CNS): 20.3 µM
- TGI (U251 CNS): 55.3 µM
- GI50 (SK-OV-3 ovarian): 77.1 µM
- TGI (SK-OV-3 ovarian): > 100 µM
- GI50 (SR leukemia): 28.5 µM
- TGI (SR leukemia): 88.6 µM
- GI50 (NCI-H226 lung): 23.8 µM
- TGI (NCI-H226 lung): 57.1 µM
- GI50 (OVCAR-3 ovarian): 5.62 µM
- TGI (OVCAR-3 ovarian): 25.7 µM
- GI50 (HS 578T breast): 23.6 µM
- TGI (HS 578T breast): 63.8 µM
- GI50 (OVCAR-4 ovarian): 42.1 µM
- TGI (OVCAR-4 ovarian): > 100 µM
- GI50 (OVCAR-5 ovarian): 30.9 µM
- TGI (OVCAR-5 ovarian): > 100 µM
- GI50 (ACHN renal): 46.8 µM
- TGI (ACHN renal): > 100 µM
- GI50 (DU-145 prostate): 63 µM
- TGI (DU-145 prostate): > 100 µM
- GI50 (SNB-75 CNS): > 100 µM
- TGI (SNB-75 CNS): > 100 µM
- GI50 (MDA-MB-231 breast): 32.6 µM
- TGI (MDA-MB-231 breast): > 100 µM
- GI50 (SK-MEL-28 melanoma): 56 µM
- TGI (SK-MEL-28 melanoma): > 100 µM
- GI50 (K-562 leukemia): 36.4 µM
- TGI (K-562 leukemia): > 100 µM
- GI50 (KM12 colon): 19.7 µM
- TGI (KM12 colon): 48.3 µM
- GI50 (SF-295 CNS): 21.4 µM
- TGI (SF-295 CNS): 55.2 µM
- GI50 (NCI/ADR-RES ovarian): 20.4 µM
- TGI (NCI/ADR-RES ovarian): 56.5 µM
- GI50 (T-47D breast): 12.4 µM
- TGI (T-47D breast): 42.9 µM
